We go through four compounds from BindingDB's records for doi:10.1074/jbc.M803947200 (Universit&Eacute, 2008).

Sequence of Stromal cell-derived factor 1 (P48061 whole entry): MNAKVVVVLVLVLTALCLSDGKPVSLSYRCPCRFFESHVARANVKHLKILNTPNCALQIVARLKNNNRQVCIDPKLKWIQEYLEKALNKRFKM

This assay has as its target Stromal cell-derived factor 1 (Homo sapiens, UniProt P48061). Briefly: Tryptophan Fluorescence Assay. The note with it: 20 °C. The text has this:
Binding of chalcone 4 and chlcone 1 to CSCL12 was examined by monitoring changes in the emission intensity of intrinsic Trp fluorescence of the chemokine.
`O=C(/C=C/c1ccc(O)cc1)c1ccccc1` [Chalcone 2] gave an IC50 of 15 µM.

Consider `COc1cc(/C=C/C(=O)c2ccc(Cl)cc2)ccc1O` [1-(4-Chloro-phenyl)-3-(4-hydroxy-3-methoxy-phenyl)-propenone], for which the midpoint of inhibition, the IC50, lay at 150 µM.

`O=C(/C=C/c1ccccc1)c1ccccc1` [Chalcone, 13] gave an IC50 greater than 500 µM.

Consider `O=C(/C=C/c1ccc(O)cc1)c1ccccc1O` [(E)-1-(2-hydroxyphenyl)-3-(4-hydroxyphenyl)prop-2-en-1-one], for which the midpoint of inhibition, the IC50, lay at 24.2 µM.
